We go through 37 molecules from patent US8541588B2, “Sulfonamide derivatives” (Pfizer Limited, priority 2009, dated 2013).

The experiment has as its target T1, Nav1.7 (or SCN9A) channel; HEK cells stably transfected with hSCN9A (Homo sapiens, UniProt Q15858).
T1 construct: expressed in transfected cells
Description: Nav1.7 block, PatchXpress 7000 automated whole-cell voltage clamp, estimated IC50 (EIC50). The format is cell-based. The following applies: PatchXpress platform; hSCN9A HEK cells held at V1/2 of inactivation; estimated IC50.

T1 sequence (Q15858 whole entry): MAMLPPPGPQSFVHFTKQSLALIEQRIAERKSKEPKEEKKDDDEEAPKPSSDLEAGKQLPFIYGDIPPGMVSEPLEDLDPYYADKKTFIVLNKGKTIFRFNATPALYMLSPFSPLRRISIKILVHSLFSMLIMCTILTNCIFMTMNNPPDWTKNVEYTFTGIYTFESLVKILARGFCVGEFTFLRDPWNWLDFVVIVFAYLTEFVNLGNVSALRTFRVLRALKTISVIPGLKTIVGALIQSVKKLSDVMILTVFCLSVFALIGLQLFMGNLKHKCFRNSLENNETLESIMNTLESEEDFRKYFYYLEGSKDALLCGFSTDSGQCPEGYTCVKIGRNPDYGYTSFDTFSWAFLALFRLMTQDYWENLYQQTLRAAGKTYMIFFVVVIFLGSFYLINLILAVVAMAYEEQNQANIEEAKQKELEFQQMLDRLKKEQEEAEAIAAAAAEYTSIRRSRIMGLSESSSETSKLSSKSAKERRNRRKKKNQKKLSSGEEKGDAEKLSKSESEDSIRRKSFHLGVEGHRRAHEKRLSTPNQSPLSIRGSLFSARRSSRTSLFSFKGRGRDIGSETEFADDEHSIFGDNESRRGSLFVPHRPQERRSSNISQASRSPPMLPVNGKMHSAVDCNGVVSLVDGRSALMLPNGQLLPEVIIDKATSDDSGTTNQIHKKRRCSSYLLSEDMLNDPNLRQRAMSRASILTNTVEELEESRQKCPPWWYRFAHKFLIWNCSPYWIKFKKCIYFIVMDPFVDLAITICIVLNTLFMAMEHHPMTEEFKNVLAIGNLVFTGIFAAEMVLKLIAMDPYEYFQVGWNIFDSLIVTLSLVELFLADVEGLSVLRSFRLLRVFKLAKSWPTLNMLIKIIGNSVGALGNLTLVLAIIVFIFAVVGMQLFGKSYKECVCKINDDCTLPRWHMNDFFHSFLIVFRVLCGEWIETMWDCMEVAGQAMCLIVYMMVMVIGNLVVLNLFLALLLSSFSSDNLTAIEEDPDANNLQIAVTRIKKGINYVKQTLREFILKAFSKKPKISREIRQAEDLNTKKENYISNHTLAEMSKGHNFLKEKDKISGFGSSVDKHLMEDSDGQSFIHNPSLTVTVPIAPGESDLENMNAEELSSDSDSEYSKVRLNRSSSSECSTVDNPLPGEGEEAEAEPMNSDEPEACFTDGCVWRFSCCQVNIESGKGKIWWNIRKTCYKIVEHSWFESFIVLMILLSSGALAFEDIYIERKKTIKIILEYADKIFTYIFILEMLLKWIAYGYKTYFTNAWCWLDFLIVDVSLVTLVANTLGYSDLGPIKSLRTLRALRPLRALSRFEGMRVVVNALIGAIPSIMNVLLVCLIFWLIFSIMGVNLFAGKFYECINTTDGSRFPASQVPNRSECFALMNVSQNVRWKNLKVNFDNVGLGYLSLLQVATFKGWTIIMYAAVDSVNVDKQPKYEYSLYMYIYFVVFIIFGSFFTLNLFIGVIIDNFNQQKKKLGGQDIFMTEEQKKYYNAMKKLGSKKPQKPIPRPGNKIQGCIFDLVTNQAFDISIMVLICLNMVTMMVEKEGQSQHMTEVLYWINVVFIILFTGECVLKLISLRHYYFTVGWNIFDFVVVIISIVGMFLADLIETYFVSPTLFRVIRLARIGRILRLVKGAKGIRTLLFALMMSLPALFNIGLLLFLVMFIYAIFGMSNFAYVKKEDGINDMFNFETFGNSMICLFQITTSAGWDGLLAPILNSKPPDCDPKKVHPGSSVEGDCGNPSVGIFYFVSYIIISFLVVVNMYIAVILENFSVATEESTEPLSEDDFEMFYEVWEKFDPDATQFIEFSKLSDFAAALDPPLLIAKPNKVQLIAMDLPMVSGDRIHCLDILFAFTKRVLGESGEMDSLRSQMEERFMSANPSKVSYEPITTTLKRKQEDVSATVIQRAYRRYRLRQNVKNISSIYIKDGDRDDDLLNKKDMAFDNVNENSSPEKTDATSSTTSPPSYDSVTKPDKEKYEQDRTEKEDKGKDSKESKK

In the case of `Cc1cc(Oc2ccc(S(=O)(=O)Nc3nccs3)cc2F)n(-c2ccccc2)n1` [Example 231, 3-fluoro-4-(5-methyl-2-phenyl-2H-pyrazol-3-yloxy)-N-thiazol-2-yl-benzenesulfonamide], the IC50 (as a rule, the midpoint of a concentration-inhibition curve) was 0.47 µM. Turning to `O=S(=O)(Nc1nccs1)c1ccc(Oc2ccn(Cc3ccc(Cl)cc3)n2)c(F)c1` [Example 232, 4-[1-(4-chloro-benzyl)-1H-pyrazol-3-yloxy]-3-fluoro-N-thiazol-2-yl-benzenesulfonamide], the IC50 was 1.87 µM. As for `Cn1cc(-c2ccccc2)c(Oc2ccc(S(=O)(=O)Nc3nccs3)cc2F)n1` [Example 233, 3-fluoro-4-(1-methyl-4-phenyl-1H-pyrazol-3-yloxy)-N-(thiazol-2-yl)benzenesulfonamide], the concentration for half-maximal inhibition (IC50) was 3.49 µM. Next, `COCc1ccc(Oc2ccc(S(=O)(=O)Nc3nccs3)cc2F)c(-c2ccnn2C)c1` [Example 234, 3-fluoro-4-(4-(methoxymethyl)-2-(1-methyl-1H-pyrazol-5-yl)phenoxy)-N-(thiazol-2-yl)benzenesulfonamide]: 0.09 µM; `O=S(=O)(Nc1nccs1)c1ccc(Oc2cnn(Cc3ccc(Cl)cc3)c2)c(F)c1` [Example 235, 4-(1-(4-chlorobenzyl)-1H-pyrazol-4-yloxy)-3-fluoro-N-(thiazol-2-yl)benzenesulfonamide]: 0.76 µM. Next, `O=S(=O)(Nc1nccs1)c1ccc(Oc2ncncc2-c2ccccc2)c(F)c1` [Example 236, 3-fluoro-4-(5-phenylpyrimidin-4-yloxy)-N-(thiazol-2-yl)benzenesulfonamide]: 13.9 µM; `O=S(=O)(Nc1nccs1)c1ccc(Oc2ccc(F)cc2-c2ccnn2CCO)c(F)c1` [Example 237, 3-fluoro-4-{4-fluoro-2-[1-(2-hydroxyethyl)-1H-pyrazol-5-yl]phenoxy}-N-1,3-thiazol-2-ylbenzenesulfonamide]: 0.21 µM; `O=C(O)Cn1nccc1-c1cc(F)ccc1Oc1ccc(S(=O)(=O)Nc2nccs2)cc1F` [Example 238, 2-(5-(5-fluoro-2-(2-fluoro-4-(N-thiazol-2-ylsulfamoyl)phenoxy)phenyl)-1H-pyrazol-1-yl)acetic acid]: 2.21 µM. Turning to `CN(C)C(=O)Cn1nccc1-c1cc(F)ccc1Oc1ccc(S(=O)(=O)Nc2nccs2)cc1F` [Example 239, 2-(5-(5-fluoro-2-(2-fluoro-4-(N-thiazol-2-ylsulfamoyl)phenoxy)phenyl)-1H-pyrazol-1-yl)-N,N-dimethylacetamide], the concentration for half-maximal inhibition (IC50) is 1.9 µM.

For the molecule `CC(C)(C)n1nc(Cc2ccc(Cl)cc2)cc1Oc1ccc(S(=O)(=O)Nc2nccs2)cc1F` [Example 240, 4-[2-tert-butyl-5-(4-chloro-benzyl)-2H-pyrazol-3-yloxy]-3-fluoro-N-thiazol-2-yl-benzenesulfonamide], the IC50 was 1.98 µM. For `Cn1nc(Cc2ccc(Cl)cc2)cc1Oc1ccc(S(=O)(=O)Nc2nccs2)cc1F` [Example 241, 4-[5-(4-chloro-benzyl)-2-methyl-2H-pyrazol-3-yloxy]-3-fluoro-N-thiazol-2-yl-benzenesulfonamide], the concentration for half-maximal inhibition (IC50) is 1.47 µM. For `O=S(=O)(Nc1nccs1)c1ccc(Oc2ccccc2-c2ccccc2)c(F)c1` [Example 242, 4-(biphenyl-2-yloxy)-3-fluoro-N-thiazol-2-yl-benzenesulfonamide], the IC50 is 0.12 µM. As to `O=S(=O)(Nc1nccs1)c1ccc(Oc2cc(Cc3ccc(Cl)cc3)n[nH]2)c(F)c1` [Example 243, 4-(3-(4-chlorobenzyl)-1H-pyrazol-5-yloxy)-3-fluoro-N-(thiazol-2-yl)benzenesulfonamide], the half-maximal inhibitory concentration (IC50) is 3.86 µM. With `Cc1c(Cl)ccc(Oc2ccc(S(=O)(=O)Nc3nccs3)cc2F)c1-c1nnco1` [Example 244, 4-(4-chloro-3-methyl-2-[1,3,4]oxadiazol-2-yl-phenoxy)-3-fluoro-N-thiazol-2-yl-benzenesulfonamide], the IC50 was 1.79 µM. Regarding `CC(C)(C)n1nc(C(F)(F)F)cc1-c1ccc(Oc2ccc(S(=O)(=O)Nc3nccs3)cc2F)cc1` [Example 245, 4-[4-(2-tert-butyl-5-trifluoromethyl-2H-pyrazol-3-yl)-phenoxy]-3-fluoro-N-thiazol-2-yl-benzenesulfonamide], the IC50 is 1.04 µM. The figure for `O=S(=O)(Nc1nccs1)c1ccc(Oc2ccc(-c3cc(C(F)(F)F)n[nH]3)cc2)c(F)c1` [Example 246, 3-fluoro-N-(thiazol-2-yl)-4-(4-(3-(trifluoromethyl)-1H-pyrazol-5-yl)phenoxy)benzenesulfonamide] is 3.76 µM; for `O=S(=O)(Nc1nccs1)c1ccc(Oc2ccc(-c3ccccc3)cc2)c(F)c1` [Example 247, 4-(biphenyl-4-yloxy)-3-fluoro-N-thiazol-2-yl-benzenesulfonamide] it is 2.95 µM; for `Cc1cc(C)n(-c2ccc(Oc3ccc(S(=O)(=O)Nc4nccs4)cc3F)cc2)n1` [Example 248, 4-[4-(3,5-dimethyl-pyrazol-1-yl)-phenoxy]-3-fluoro-N-thiazol-2-yl-benzenesulfonamide] it is 2.78 µM. `NC(=O)c1cc(S(=O)(=O)Nc2nccs2)ccc1Oc1cnn(Cc2ccc(Cl)cc2)c1` [Example 249, 2-(1-(4-chlorobenzyl)-1H-pyrazol-4-yloxy)-5-(N-thiazol-2-ylsulfamoyl)benzamide]: the half-maximal inhibitory concentration (IC50) was 2.4 µM. Next, `NC(=O)c1cc(S(=O)(=O)Nc2nccs2)ccc1Oc1ccccc1-c1ccccc1` [Example 250, 2-(biphenyl-2-yloxy)-5-(N-thiazol-2-ylsulfamoyl)benzamide]: 1.85 µM. The figure for `O=S(=O)(Nc1nncs1)c1ccc(Oc2ccccc2-c2ccccc2)c(F)c1` [Example 251, 4-(biphenyl-2-yloxy)-3-fluoro-N-(1,3,4-thiadiazol-2-yl)benzenesulfonamide] is 2.54 µM; for `Cc1nn(Cc2ccccc2)cc1-c1ccccc1Oc1ccc(S(=O)(=O)Nc2ncns2)cc1F` [Example 252, 4-(2-(1-benzyl-3-methyl-1H-pyrazol-4-yl)phenoxy)-3-fluoro-N-(1,2,4-thiadiazol-5-yl)benzenesulfonamide] it is 24.5 µM; for `O=S(=O)(Nc1ncns1)c1ccc(Oc2cc(C(F)(F)F)nn2-c2cc(F)ccc2F)c(F)c1` [Example 253, 4-[2-(2,5-difluoro-phenyl)-5-trifluoromethyl-2H-pyrazol-3-yloxy]-3-fluoro-N-1,2,4-thiadiazol-5-yl-benzenesulfonamide] it is 0.63 µM. Next, `O=S(=O)(Nc1ncns1)c1ccc(Oc2cc(C(F)(F)F)nn2-c2ccccc2)c(F)c1` [Example 254, 3-fluoro-4-(2-phenyl-5-trifluoromethyl-2H-pyrazol-3-yloxy)-N-1,2,4-thiadiazol-5-yl-benzenesulfonamide]: 0.34 µM; `O=S(=O)(Nc1ncns1)c1ccc(Oc2cc(C(F)(F)F)nn2-c2ccccc2F)c(F)c1` [Example 255, 3-fluoro-4-[2-(2-fluoro-phenyl)-5-trifluoromethyl-2H-pyrazol-3-yloxy]-N-1,2,4-thiadiazol-5-yl-benzenesulfonamide]: 0.49 µM; `Cc1cc(S(=O)(=O)Nc2ncns2)ccc1Oc1ccccc1-c1ccccc1` [Example 256, 4-(biphenyl-2-yloxy)-3-methyl-N-1,2,4-thiadiazol-5-ylbenzenesulfonamide]: 0.22 µM. For the molecule `Cc1cc(S(=O)(=O)Nc2ncns2)ccc1Oc1ccn(Cc2ccc(Cl)cc2)n1` [Example 257, 4-{[1-(4-chlorobenzyl)-1H-pyrazol-3-yl]oxy}-3-methyl-N-1,2,4-thiadiazol-5-ylbenzenesulfonamide], the IC50 was 2.2 µM. The figure for `Cc1cc(S(=O)(=O)Nc2nccs2)ccc1Oc1ccccc1-c1ccccc1` [Example 258, 4-(biphenyl-2-yloxy)-3-methyl-N-1,3-thiazol-2-ylbenzenesulfonamide] is 1.02 µM. Next, `COc1cc(S(=O)(=O)Nc2ncns2)ccc1Oc1ccn(Cc2ccc(Cl)cc2)n1` [Example 259, 4-{[1-(4-chlorobenzyl)-1H-pyrazol-3-yl]oxy}-3-methoxy-N-1,2,4-thiadiazol-5-ylbenzenesulfonamide]: 16.5 µM. As for `O=S(=O)(Nc1ncns1)c1ccc(Oc2ccccc2-c2ccccc2)cc1C(F)(F)F` [Example 260, 4-(biphenyl-2-yloxy)-N-1,2,4-thiadiazol-5-yl-2-(trifluoromethyl)benzenesulfonamide], the IC50 is 15.9 µM. For `Cc1cc(Oc2ccccc2-c2ccccc2)ccc1S(=O)(=O)Nc1ncns1` [Example 261, 4-(biphenyl-2-yloxy)-2-methyl-N-1,2,4-thiadiazol-5-ylbenzenesulfonamide], the half-inhibitory concentration (IC50) was 0.47 µM.

As to `COc1cc(S(=O)(=O)Nc2ncns2)ccc1Oc1ccccc1-c1ccccc1` [Example 262, 4-(biphenyl-2-yloxy)-3-methoxy-N-1,2,4-thiadiazol-5-ylbenzenesulfonamide], the 50% inhibitory concentration (IC50) was 1.32 µM. Next, `O=S(=O)(Nc1ncns1)c1ccc(Oc2ccccc2-c2ccccc2)cc1Cl` [Example 263, 4-(biphenyl-2-yloxy)-2-chloro-N-1,2,4-thiadiazol-5-ylbenzenesulfonamide]: 1.44 µM.

In the case of `O=S(=O)(Nc1ncns1)c1cc(F)c(Oc2ccccc2-c2ccccc2)c(F)c1` [Example 264, 4-(biphenyl-2-yloxy)-3,5-difluoro-N-1,2,4-thiadiazol-5-ylbenzenesulfonamide], the concentration for half-maximal inhibition (IC50) is 2.38 µM. The figure for `O=S(=O)(Nc1ncns1)c1cc(F)c(Oc2ccn(Cc3ccc(Cl)cc3)n2)c(F)c1` [Example 265, 4-{[1-(4-chlorobenzyl)-1H-pyrazol-3-yl]oxy}-3,5-difluoro-N-1,2,4-thiadiazol-5-ylbenzenesulfonamide] is 38.9 µM; for `O=S(=O)(Nc1ncns1)c1cc(F)c(Oc2ccccc2-c2ccccc2)cc1F` [Example 266, 4-(biphenyl-2-yloxy)-2,5-difluoro-N-1,2,4-thiadiazol-5-ylbenzenesulfonamide] it is 0.1 µM. Next, `O=S(=O)(Nc1ncns1)c1cc(F)c(Oc2ccccc2-c2ccccc2)cc1Cl` [Example 267, 4-(biphenyl-2-yloxy)-2-chloro-5-fluoro-N-1,2,4-thiadiazol-5-ylbenzenesulfonamide]: 0.19 µM.
